Entries after “also recorded” stand apart in the source; their conditions may differ. Like-named read-outs stand apart in the source and are kept apart here.
How the values were obtained:
[1] = Histological evaluation of the blood brain barrier and blood tumour barrier by dye staining; type: in vivo; conditions: day 3 after tumour implantation; 5 mice per dye
Experimental: Following anaesthesia by hypnorm/dormicum 25 uL of Evans Blue Dye or 80 uL of Lissamine Green was administered by a tail-vein. After allowing the dye to circulate, animals were perfused transcardially with a 4% formalin solution for 5 minutes. The brain was kept in formalin 4%, and […] thick slices were cut on a vibratome and evaluated visually for staining. A check for positive stain of organs was performed before inclusion of the animal in the evaluation of staining of the brain and tumour. Evans Blue Dye and Lissamine Green were obtained from Sigma-Aldrich (Vallensbaek, DK) and prepared fresh as a 2% solution in isotonic saline.
(§1) Experiments with Evans blue dye, Lissamine Green and 3H-etoposide were done on day 3, with preparations as described for treatment efficacy experiments.

[2] = tested on: Ehrlich Ascites tumour cells; experiment: Clonogenic survival in soft agar after drug with or without concurrent radiotherapy; conditions: for Cell-kill interaction of etoposide with radiotherapy: increasing concentrations of etoposide, 150 minutes exposure
[3] = tested on: Ehrlich Ascites tumour cells; experiment: Treatment efficacy: survival of mice with intracerebrally implanted Ehrlich Ascites tumour; type: in vivo, B6D2F1 female mice
Experimental: B6D2F1 female mice from Taconic M&B (Ry, Denmark) were housed in cages of 9 with free access to water and Altromi laboratory diet from Brogaarden (Gentofte, DK). They weighed 19-22 grams at inclusion in protocol. Animals that deteriorated clinically during the experiment were euthanised, and the experiments were approved by the Danish Animal Experimentation Inspectorate.
A total of 15×10^4 Ehrlich Ascites tumour cells in 30 uL saline were implanted into the right temporal hemisphere during short CO2 anaesthesia on day 0 and treated on day 3. Treatment was scheduled as follows: dexrazoxane at t=0, etoposide at t=20 minutes and radiation treatment at t=50 minutes. Before the radiotherapy procedure a light anaesthesia was administered, to achieve compliance.
This way we obtained a simple and reliable method of comparison.
Efficacy of chemoradiotherapy compared to radiotherapy alone was calculated as: […]
Median survival after chemotherapy compared to radiotherapy alone was calculated as:
The absolute numeric difference in median survival time after chemotherapy alone compared to radiotherapy alone was simply calculated as: Difference in survival (days)=MS radiotherapy−MS chemotherapy Eq. 3)
Survival times within the separate experimental treatment groups were compiled, and presented in Kaplan-Meier plots. P-values from Logrank tests comparing survival in experimental groups compared to radiotherapy alone are shown.
The dose-rate was 4.7 Gy/minute.
Dexrazoxane (Zinecard®) was obtained from Pharmacia (Kalamazoo, Mich.) and further diluted in Ringer-lactate. Etoposide (Vepesid™) was obtained as a ready to administer liquid solution from Pharmacia A/S (Copenhagen, DK) and diluted to final concentration in isotonic saline. 3H-etoposide was obtained from Moravek (Calif., USA) and kept at −20° C. All drugs were administered by the intra-peritoneal (ip.) route.

[4] = tested on: topoisomerase-II; conditions: in vitro, cited from earlier work
[5] = Brain and tumour uptake using tritiated etoposide; type: in vivo, mice; conditions: ten minutes after ip administration
Experimental: Tritium-labelled etoposide was mixed with either “cold” etoposide 9.0 mg/ml, “cold” etoposide 0.9 mg/ml or isotonic saline, all in a final volume of 200 uL. Ten minutes after the administration mice were anaesthetized by CO2, blood was collected and plasma was separated. […] Tumour and unaffected contra-lateral brain were removed under a surgical microscope, weighed and sonicated. Activity was measured in a liquid scintillation counter from Packard (US), and counts/gram in brain and tumour was compared to concurrent plasma values.
as §1

[6] = Etoposide area under the curve after intra-peritoneal treatment; type: in vivo; conditions: own experiments, data unpublished
Experimental: Following intra-peritoneal treatment with etoposide, approximately 95% of the total etoposide area under the curve is covered within 150 minutes after administration (own experiments, data unpublished). […] Ehrlich Ascites tumour cells were incubated in etoposide or dexrazoxane for 30 minutes before irradiation, and then allowed further 120 minutes post-irradiation drug incubation, resulting in a total duration of exposure of 150 minutes.

[7] = tested on: topoisomerase II; conditions: cited from earlier work
[8] = tested on: brain metastasis from SCLC; conditions: cited from earlier work
[9] = concurrent teniposide and WBRT, phase III trial

Cc1cc(-c2ccc(/N=N/c3ccc4c(S(=O)(=O)[O-])cc(S(=O)(=O)[O-])c(N)c4c3O)c(C)c2)ccc1/N=N/c1ccc2c(S(=O)(=O)[O-])cc(S(=O)(=O)[O-])c(N)c2c1O.[Na+].[Na+].[Na+].[Na+] [Evans blue dye]
Colouration of brain or tumour tissue after tail-vein administration [1]: no colouration of brain or tumour tissue

CN(C)c1ccc(C(=C2C=CC(=[N+](C)C)C=C2)c2c(O)c(S(=O)(=O)[O-])cc3cc(S(=O)(=O)[O-])ccc23)cc1.[Na+] [Lissamine Green]
Colouration of brain or tumour tissue after tail-vein administration [1]: no colouration of brain or tumour tissue

C[C@@H](CN1CC(=O)NC(=O)C1)N1CC(=O)NC(=O)C1 [dexrazoxane, (S)-(+)-1,2-Bis(3,5-dioxopiperazin-1-yl)propane]
Toxicity of drug alone in clonogenic survival ([2]; dexrazoxane alone): non-toxic | Radio-enhancing effect in clonogenic survival ([2]; fixed doses of dexrazoxane 25 μM or 125 μM, increasing radiotherapy doses): no radio-enhancing effect; also recorded: no effect at all | Survival after drug alone ([3]; dexrazoxane 125 mg/kg alone): increased survival a little | Effect on survival in combination with radiotherapy ([3]; dexrazoxane 125 mg/kg and concurrent 10 Gy): neither dexrazoxane 125 mg/kg (FIG. 1D) nor solvent affected survival in combination with radiotherapy | Difference in survival, days lost from ineffective treatment (Eq. 3) ([3]; dexrazoxane 125 mg/kg ip alone, compared to radiotherapy): 5 days | Effect on toxicity from etoposide in clonogenic assay [4]: antagonises toxicity from etoposide | Formation of DNA strand breaks induced by topoisomerase-II poisons [4]: inhibits the formation of DNA strand breaks

COc1cc([C@@H]2c3cc4c(cc3[C@@H](O[C@@H]3O[C@@H]5CO[C@@H](C)O[C@H]5[C@H](O)[C@H]3O)[C@H]3COC(=O)[C@H]23)OCO4)cc(OC)c1O [etoposide, 9-[[4,6-O-(1R)-ethylidene-β-D-glucopyranosyl]oxy]-5,8,8a,9-tetrahydro-5-(4-hydroxy-3,5-dimethoxyphenyl)-(5R,5aR,8aR,9S)-furo[3′,4′:6,7]naphtho[2,3-d]-1,3-dioxol-6(5aH)-one]
Interaction by combination index (Chou and Talalay) ([2]; increasing concentrations of etoposide with radiotherapy): synergism | Cell-kill interaction of etoposide with radiotherapy ([2]; 1.25 Gy): did not result in an increased cell-kill | Cell-kill interaction of etoposide with radiotherapy ([2]; 7.5 Gy): synergistic cell-kill; also recorded: supra-additive cell-kill | Interaction by combination index (Chou and Talalay) ([2]; lowest concentrations of etoposide with radiotherapy): antagonistic | Survival after drug alone ([3]; etoposide 34 mg/kg alone): increased survival | Effect on survival from radiotherapy ([3]; etoposide 34 mg/kg and concurrent 10 Gy): did not enhance survival from radiotherapy | Cell-kill of etoposide in combination with radiotherapy ([4]; literature): synergistic cell-kill | Influence of dose, vehicle or dexrazoxane pre-treatment on uptake in tumour [5]: no influence on uptake in tumour | Tumour drug uptake compared to brain [5]: higher than in brain, but statistically insignificant, except after treatment with the low dose of etoposide | Brain/plasma ratio of 3H-etoposide ([5]; etoposide dose-escalation or dexrazoxane 125 mg/kg pre-treatment): Neither etoposide dose-escalation nor pre-treatment with dexrazoxane altered the brain/plasma ratio | Share of total etoposide area under the curve covered within 150 minutes after administration [6]: approximately 95%

COc1cc([C@@H]2c3cc4c(cc3[C@@H](O[C@@H]3O[C@@H]5CO[C@@H](c6cccs6)O[C@H]5[C@H](O)[C@H]3O)[C@H]3COC(=O)[C@H]23)OCO4)cc(OC)c1O [teniposide]
Potency relative to VP-16 [7]: about 10 fold | Time to cerebral progression ([8]; concurrent teniposide and WBRT versus teniposide alone): significantly increased | Median survival [8, 9]: 3.5 months | Response rate [8, 9]: 57% | Response rate ([8]; teniposide 150 mg/m^2 day 1, 3 and 5, alone, phase II): 33% | Median survival ([8]; teniposide alone, phase III trial): 3.2 months
